In ChEMBL document CHEMBL1156249, “Highly effective binding of viologens by p-sulfonatocalixarenes for the treatment of viologen poisoning” (J Med Chem, 2009):
Activity calls are given as the source filed them. The calls are words filed in the database; no cut-off is given here.

How the values were obtained:
[1] = Binding affinity to viologen diquat cation assessed as compound-viologen complex formation by NMR spectroscopy
[2] = Binding affinity to viologen paraquat cation assessed as compound-viologen complex formation by NMR spectroscopy
[3] = Binding affinity to viologen paraquat cation assessed as decrease in hydroxyl radical production at pH 7.2 by cyclic voltammetry
[4] = Binding affinity to viologen paraquat cation assessed as compound-viologen complex stability at pH 7.2 by isothermal calorimetry
[5] = Binding affinity to viologen paraquat cation at pH 7.2 by microcalorimetric titration method
[6] = Binding affinity to viologen diquat cation assessed as compound-viologen complex stability at pH 7.2 by isothermal calorimetry
[7] = Binding affinity to viologen diquat cation assessed as compound-viologen complex stability at pH 2 by isothermal calorimetry
[8] = Binding affinity to viologen paraquat cation at pH 1.5 by microcalorimetric titration method
[9] = Binding affinity to viologen diquat cation assessed as decrease in hydroxyl radical production at pH 7.2 by cyclic voltammetry
[10] = Binding affinity to viologen paraquat cation assessed as compound-viologen complex stability at pH 2 by isothermal calorimetry
[11] = Binding affinity to viologen diquat cation at pH 7.2 by microcalorimetric titration method
[12] = Binding affinity to viologen diquat cation at pH 1.5 by microcalorimetric titration method
Mus musculus [13] = assay: Reduction of viologen poisoning in Kunming mouse assessed as protection from viologen-associated pathological changes in liver at 100 uL/20g body weight, iv for 13 days measured on day 14 by hematoxylin and eosin staining-based microscopy; format: functional, organism-based
Mus musculus [14] = assay: Reduction of viologen poisoning in Kunming mouse assessed as protection from viologen-associated pathological changes in lung at 100 uL/20g body weight, iv administered 1 hr after viologen challenge for 13 days measured on day 14 by hematoxylin and eosin staining-based microscopy; format: functional, organism-based
Mus musculus [15] = assay: Reduction of viologen poisoning in Kunming mouse assessed as change in body weight at 100 uL/20g body weight, iv administered immediately after viologen challenge for 13 days measured on day 14 (reference value: 14 g); format: functional
Mus musculus [16] = assay: Toxicity in Kunming mouse assessed as change in body weight at 100 uL/20g body weight, iv for 13 days measured on day 14 (reference value: 32.8 +/- 3.8 g); format: organism-based; details: in vivo, 312 h
Mus musculus [17] = assay: Reduction of viologen poisoning in Kunming mouse assessed as viologen-associated mortality rate at 100 uL/20g body weight, iv administered 30 mins after viologen challenge for 13 days measured on day 14; format: functional; design: scale not given: the % may be the effect or the level left
Mus musculus [18] = assay: Reduction of viologen poisoning in Kunming mouse assessed as protection from viologen-associated pathological changes in lung at 100 uL/20g body weight, iv administered immediately after viologen challenge for 13 days measured on day 14 by hematoxylin and eosin staining-based microscopy; format: functional, organism-based
Mus musculus [19] = assay: Reduction of viologen poisoning in Kunming mouse assessed as change in body weight at 100 uL/20g body weight, iv for 13 days measured on day 14 (reference value: 14 g); format: functional
Mus musculus [20] = assay: Reduction of viologen poisoning in Kunming mouse assessed as protection from viologen-associated pathological changes in lung at 100 uL/20g body weight, iv administered 30 mins after viologen challenge for 13 days measured on day 14 by hematoxylin and eosin staining-based microscopy; format: functional, organism-based
Mus musculus [21] = assay: Reduction of viologen poisoning in Kunming mouse assessed as viologen-associated mortality rate at 100 uL/20g body weight, iv administered 2 hrs after viologen challenge for 13 days measured on day 14; format: functional; design: scale not given: the % may be the effect or the level left
Mus musculus [22] = assay: Reduction of viologen poisoning in Kunming mouse assessed as protection from viologen-associated pathological changes in lung at 100 uL/20g body weight, iv for 13 days measured on day 14 by hematoxylin and eosin staining-based microscopy; format: functional, organism-based
Mus musculus [23] = assay: Reduction of viologen poisoning in Kunming mouse assessed as viologen-associated mortality rate at 100 uL/20g body weight, iv administered immediately after viologen challenge for 13 days measured on day 14; format: functional; design: scale not given: the % may be the effect or the level left
Mus musculus [24] = assay: Reduction of viologen poisoning in Kunming mouse assessed as change in body weight at 100 uL/20g body weight, iv administered 30 mins after viologen challenge for 13 days measured on day 14 (reference value: 14 g); format: functional
Mus musculus [25] = assay: Reduction of viologen poisoning in Kunming mouse assessed as change in body weight at 100 uL/20g body weight, iv administered 1 hr after viologen challenge for 13 days measured on day 14 (reference value: 14 g); format: functional
Mus musculus [26] = assay: Reduction of viologen poisoning in Kunming mouse assessed as change in body weight at 100 uL/20g body weight, iv administered 2 hrs after viologen challenge for 13 days measured on day 14 (reference value: 14 g); format: functional
Mus musculus [27] = assay: Reduction of viologen poisoning in Kunming mouse assessed as viologen-associated mortality rate at 100 uL/20g body weight, iv administered 1 hr after viologen challenge for 13 days measured on day 14; format: functional; design: scale not given: the % may be the effect or the level left
Mus musculus [28] = assay: Reduction of viologen poisoning in Kunming mouse assessed as protection from viologen-associated pathological changes in lung at 100 uL/20g body weight, iv administered 2 hrs after viologen challenge for 13 days measured on day 14 by hematoxylin and eosin staining-based microscopy; format: functional, organism-based
Mus musculus [29] = assay: Reduction of viologen poisoning in Kunming mouse assessed as viologen-associated mortality rate at 100 uL/20g body weight, iv for 13 days measured on day 14; format: functional; design: scale not given: the % may be the effect or the level left

For `O=S(=O)(O)c1cc2c(O)c(c1)Cc1cc(S(=O)(=O)O)cc(c1O)Cc1cc(S(=O)(=O)O)cc(c1O)Cc1cc(S(=O)(=O)O)cc(c1O)C2`, the Activity [1] was “Active”, the Activity [2] was “Active” and the Activity [3] was “Active”. For the same compound, the Ks [4] was 9.33 10^4/M, the Activity [5] was “Active” and the Ks [6] was 7.95 10^5/M. For the same compound, the Ks [7] was 5.4 10^5/M, the Activity [8] was “Active” and the Activity [9] was “Active”. For the same compound, the Ks [10] was 3.09 10^4/M, the Activity [11] was “Active” and the Activity [12] was “Active”.
For `O=S(=O)(O)c1cc2c(O)c(c1)Sc1cc(S(=O)(=O)O)cc(c1O)Sc1cc(S(=O)(=O)O)cc(c1O)Sc1cc(S(=O)(=O)O)cc(c1O)S2`, the Activity [3] was “Active”, the Ks [4] was 8.68 10^3/M and the Ks [6] was 4.57 10^4/M. The Ks [7] was 2.39 10^4/M, the Activity [9] was “Active” and the Ks [10] was 2.22 10^3/M.
For `O=S(=O)(O)c1cc2c(O)c(c1)Cc1cc(S(=O)(=O)O)cc(c1O)Cc1cc(S(=O)(=O)O)cc(c1O)Cc1cc(S(=O)(=O)O)cc(c1O)Cc1cc(S(=O)(=O)O)cc(c1O)C2`, the Activity (Mus musculus [13]) was “Active”, the Activity (Mus musculus [14]) was “Active” and the Activity [1] was “Active”. For the same compound, the Activity (Mus musculus [15]) was 31 g, the Activity [2] was “Active” and the Activity [3] was “Active”. For the same compound, the Ks [4] was 2.51 10^5/M, the Activity [5] was “Active” and the Ks [6] was 3.23 10^6/M. For the same compound, the Activity (Mus musculus [16]) was 33.4 g, the Activity (Mus musculus [17]) was 40% and the Ks [7] was 1.12 10^5/M. For the same compound, the Activity (Mus musculus [18]) was “Active”, the Activity (Mus musculus [19]) was 30.8 g and the Activity (Mus musculus [20]) was “Active”. For the same compound, the Activity [8] was “Active”, the Activity (Mus musculus [21]) was 40% and the Activity [9] was “Active”. For the same compound, the Activity (Mus musculus [22]) was “Active”, the Activity (Mus musculus [23]) was 40% and the Ks [10] was 5.5 10^3/M. It also gave an Activity (Mus musculus [24]) of 31 g, an Activity (Mus musculus [25]) of 31 g and an Activity (Mus musculus [26]) of 31 g. For the same compound, the Activity [11] was “Active”, the Activity [12] was “Active” and the Activity (Mus musculus [27]) was 0%. The Activity (Mus musculus [28]) was “Active” and the Activity (Mus musculus [29]) was 20%.
